Assay: xn = mol fraction of the nth substance listed
Details: Liquid, Bellows volumetry

CC(C)C [2-methylpropane] + O=C=O
mass density [kg/m3]
Details	280 K	300 K	320 K	340 K	360 K	380 K	400 K	420 K	440 K
3000 kPa, x2 = 0.2482	611.63	–	–	–	–	–	–	–	–
3000 kPa, x2 = 0.4718	651.84	–	–	–	–	–	–	–	–
5000 kPa, x2 = 0.2482	615.96	–	552.16	–	–	–	–	–	–
5000 kPa, x2 = 0.4718	658.57	614.91	560.46	–	–	–	–	–	–
5000 kPa, x2 = 0.7506	741.3	–	–	–	–	–	–	–	–
10000 kPa, x2 = 0.2482	625.46	–	569.21	–	501.22	–	408.28	–	–
10000 kPa, x2 = 0.4718	672.04	634.66	592.64	543.45	481.3	–	–	–	–
10000 kPa, x2 = 0.7506	765.85	–	614.39	–	–	–	–	–	–
20000 kPa, x2 = 0.2482	641.52	–	593.88	–	542.86	–	486.62	–	428.1
20000 kPa, x2 = 0.4718	693.75	662.67	630.32	596.56	560.5	521.68	481.65	441.54	402.95
20000 kPa, x2 = 0.7506	800.45	–	697.56	–	574.95	–	–	–	–
30000 kPa, x2 = 0.2482	655.06	–	611.98	–	568.79	–	523.46	–	479.05
30000 kPa, x2 = 0.4718	710.92	683.38	655.66	627.77	598.86	568.93	539.19	509.95	481.23
30000 kPa, x2 = 0.7506	826.02	–	740.51	–	649.75	–	557.06	–	473.55
40000 kPa, x2 = 0.2482	665.95	–	627.15	–	588.52	–	548.72	–	511.07
40000 kPa, x2 = 0.4718	725.26	700.1	675.36	650.8	625.7	600.05	574.86	550.57	526.82
40000 kPa, x2 = 0.7506	846.38	–	771.26	–	694.72	–	618.58	–	548.5
50000 kPa, x2 = 0.2482	676.07	–	639.69	–	604.55	–	568.35	–	534.44
50000 kPa, x2 = 0.4718	737.44	714.21	691.66	669.07	646.76	623.65	601.24	579.87	559.05
50000 kPa, x2 = 0.7506	863.38	–	795.16	–	727.44	–	660.8	–	599.76
60000 kPa, x2 = 0.2482	684.83	–	650.61	–	617.73	–	584.33	–	553.6
60000 kPa, x2 = 0.4718	748.54	726.58	705.67	684.42	664.02	642.83	622.39	602.9	584.01
60000 kPa, x2 = 0.7506	878.75	–	815.43	–	753.47	–	693.37	–	637.87
70000 kPa, x2 = 0.2482	693.01	–	660.32	–	629.43	–	598.36	–	569.47
70000 kPa, x2 = 0.4718	758.63	737.54	717.84	697.86	678.79	658.77	640.1	622.11	604.56
70000 kPa, x2 = 0.7506	892.04	–	832.58	–	775.21	–	719.26	–	668.37
80000 kPa, x2 = 0.2482	700.46	–	669.23	–	639.78	–	610.26	–	583.24
80000 kPa, x2 = 0.4718	767.66	747.72	728.73	709.95	691.87	672.89	655.36	638.65	622.24
80000 kPa, x2 = 0.7506	904.12	–	847.76	–	793.79	–	741.54	–	694.04
90000 kPa, x2 = 0.2482	707.4	–	677.43	–	649.26	–	620.93	–	595.28
90000 kPa, x2 = 0.4718	775.73	756.68	738.7	720.77	703.51	685.61	668.68	652.88	637.3
90000 kPa, x2 = 0.7506	915.3	–	861.33	–	810.34	–	760.76	–	716.21
100000 kPa, x2 = 0.2482	713.94	–	685.01	–	658	–	630.87	–	606.31
100000 kPa, x2 = 0.4718	783.73	764.82	748.11	730.63	714.09	697.01	680.77	665.6	650.87
100000 kPa, x2 = 0.7506	925.43	–	873.81	–	825.34	–	778	–	735.56
120000 kPa, x2 = 0.2482	725.79	–	698.63	–	673.4	–	647.91	–	625.43
120000 kPa, x2 = 0.4718	797.65	780.34	764.51	748.22	733.04	716.82	701.98	688.04	674.34
120000 kPa, x2 = 0.7506	944.22	–	895.88	–	851.1	–	807.55	–	768.56
140000 kPa, x2 = 0.2482	736.43	–	710.75	–	686.88	–	662.89	–	641.8
140000 kPa, x2 = 0.4718	810.05	794.03	778.96	764.19	749.43	734.35	720.03	707.29	694.6
140000 kPa, x2 = 0.7506	960.61	–	915.09	–	872.92	–	832.23	–	796.08
160000 kPa, x2 = 0.2482	746.22	–	721.58	–	699.29	–	675.97	–	656.01
160000 kPa, x2 = 0.4718	821.36	805.98	791.76	777.55	763.95	749.48	735.72	723.63	711.68
160000 kPa, x2 = 0.7506	975.64	–	932.24	–	892.29	–	854.07	–	819.85
180000 kPa, x2 = 0.2482	755.07	–	731.49	–	710.13	–	687.97	–	668.66
180000 kPa, x2 = 0.4718	831.97	817	803.87	790.06	777.13	763.2	749.97	738.5	726.86
180000 kPa, x2 = 0.7506	989.13	–	947.81	–	909.66	–	873.25	–	840.83
200000 kPa, x2 = 0.2482	763.28	–	740.45	–	720.21	–	698.66	–	680.35
200000 kPa, x2 = 0.4718	841.63	827.43	814.43	801.25	789.12	775.73	763.13	752.04	741.37
200000 kPa, x2 = 0.7506	1001.91	–	962.05	–	925.27	–	890.48	–	859.57
